Where “and” joins values, the source holds several entries; their conditions need not be identical. Equal entries are not always repeated.
Key:
Vaccinia NYCBOH strain = format: cell-based; settings: read-out: IC50, inhibition of infectivity of Vaccinia virus
[1] = Iminosugar safety study, C57/B1/6 mice; settings: oral suspension twice a day for 7 days at 100 and 10 mg/kg
[2] = Iminosugar safety study, BALB/c mice; settings: for weight loss compared to vehicle only control: oral suspension twice a day for 7 days at 100 and 10 mg/kg
Cowpox Brighton = format: in vivo, BALB/C mice; settings: n=10
[3] = mouse, in vivo

CCCCN1C[C@H](O)[C@@H](O)[C@H](O)[C@H]1CO [UV-1, N-Butyl deoxynojirimycin]
IC50 (Vaccinia NYCBOH strain): 90 µM | weight loss compared to vehicle only control [1]: did not show any significant signs of weight loss | weight loss compared to vehicle only control [2]: did not show any significant signs of weight loss

CCCCCCCCCN1C[C@H](O)[C@@H](O)[C@H](O)[C@H]1CO [UV-2, N-Nonyl deoxynojirimycin]
IC50 (Vaccinia NYCBOH strain): 21 µM

CCCOCCCCCCN1C[C@H](O)[C@@H](O)[C@H](O)[C@H]1CO [UV-3, N-(7-Oxadecyl)deoxynojirimycin]
IC50 (Vaccinia NYCBOH strain): 7 µM

COCCCCCCCCCN1C[C@H](O)[C@@H](O)[C@H](O)[C@H]1CO [UV-4, N-(9-Methoxynonyl) deoxynojirimycin]
percentage of surviving mice (Cowpox Brighton): 100% and 70% | IC50 (Vaccinia NYCBOH strain): 59 µM | weight loss or adverse effects [3]: no weight loss or adverse effects observed | weight loss compared to vehicle only control [1]: did not show any significant signs of weight loss | weight loss compared to vehicle only control [2]: did not show any significant signs of weight loss

[N-]=[N+]=Nc1ccc(NCCCCCCN2C[C@H](O)[C@@H](O)[C@H](O)[C@H]2CO)c([N+](=O)[O-])c1 [UV-5, N—(N-{4′-azido-2′-nitrophenyl}-6-aminohexyl)deoxynojirimycin]
IC50 (Vaccinia NYCBOH strain): 3 µM | weight loss compared to vehicle only control [1]: did not show any significant signs of weight loss | general health, clinical signs ([2]; highest concentration (100 mg/kg twice a day, 7 days), symptoms ceased when treatment was done): signs of diarrhea, red urine, and a ruffled appearance | weight loss compared to vehicle only control [2]: did not show any significant signs of weight loss

Reference: patent US20110065753A1, “METHODS OF TREATING POXVIRAL INFECTIONS” (priority 2009, published 2011)
